Measured values published in patent publication US20090222080A1, “MEDICAL STENT PROVIDED WITH INHIBITORS OF TUMOR NECROSIS FACTOR-ALPHA” (Picarus NV SA, priority 2005, published 2009).

Key:
TNF protein = assay: vascular levels of TNF protein after local thalidomide in the mouse cuff model; format: in vivo, mice; conditions: thalidomide administered locally (cuff)
Method: (§1) For the mouse study, ApoE*3-Leiden mice and TNF knockout mice were used to determine the impact of TNF-alpha on restenosis development after cuff placement around the femoral artery for 14 days. In another ApoE*3-Leiden mice group the cuffs were loaded with 1% (w/w) thalidomide, a TNF biosynthesis inhibitor.
Furthermore, the vascular levels of TNF protein were decreased when thalidomide was administered locally.

ApoE*3-Leiden mice = assay: mouse femoral artery cuff model of restenosis (neointima formation); format: in vivo; conditions: cuff around the femoral artery for 14 days, cuffs loaded with 1% (w/w) thalidomide, p=0.005
Description: as §1

In the case of `O=C1CCC(N2C(=O)c3ccccc3C2=O)C(=O)N1` (centres unmarked) [thalidomide, 2-(2,6-dioxo-3-piperidinyl)-1H-isoindole-1,3(2H)-dione], the “vascular levels of TNF protein” value (TNF protein) was “decreased” and the neointima formation (ApoE*3-Leiden mice) was “significantly less neointima formation”.
